Literature values as cited in patent US12297406B2, “Method for preparing a composition comprising cetylated fatty acids” (ALESCO S.R.L., priority 2019, dated 2025).

Conditions: European Union food additive E319

CC(C)(C)c1cc(O)ccc1O [TBHQ, Tert-butyl-hydroquinone]
acceptable daily intake (ADI): 0.7 mg/kg of body weight
